Data reported in paper PMC5675611, “GZD824 suppresses the growth of human B cell precursor acute lymphoblastic leukemia cells by inhibiting the SRC kinase and PI3K/AKT pathways” (Oncotarget, 2016).

Legend:
phospho-Rb = assay: Western blot of NALM6 cells; assay type: cell-based, human; details: NALM6, 1μM or 3μM, 24 hours
Description: (§1) Figure 5 GZD824 inhibits the SRC kinase in pre-B ALL cells A-C. Western blot analysis of […]-treated NALM6 cells. Cells were treated with DMSO, GZD824 (1μM), or GZD824 (3μM) for 24 hours. Lysates were analyzed with antibodies to (A) phospho-SRC and SRC; (B) phospho-STAT3 and STAT3; and (C) phospho-Rb, Rb, and C-Myc. D. qRT-PCR products of BCL-XL, CCND1, CDK4, and CCK[…] mRNA were normalized to GAPDH and presented as fold increase or decrease compared to control, 24 hours after treatment with 3 μM GZD824. E. NALM6 cells were treated with GZD824, SRC inhibitor (KX2-391), STAT3 inhibitor (HO-3867), or DMSO for 24 hours. Statistical analysis of Annexin V-positive cells in 3μM of drug treated NALM6 cells. All data from independent experiments are presented as mean ± SEM. Significance values: ^*P<0.05; ^**P<0.01; ^***P<0.001. For Western blot analysis, 30 μg of total protein extracts prepared from NALM6 or primary pre-B ALL cells from SP of PDX mice were separated on SDS-PAGE and transferred to a PVDF membrane (Bio-Rad, Hercules, CA, USA). The following commercially available antibodies and dilutions were used for Western blotting: human anti-STAT3 (ab119352, Abcam, UK), human anti-phospho-STAT3 (Y705) (ab76315, Abcam, UK), human anti-SRC (ab32102, Abcam, UK), human anti-phospho-SRC ([…]) (ab185617, Abcam, UK), human anti-RB (9313, Cell Signaling Technology, MA, USA), human anti-phospho-RB (Ser807/811) (8516, Cell Signaling Technology, MA, USA), human anti-C-myc (13987, Cell Signaling Technology, MA, USA), anti-AKT (pan) ([…], Cell Signaling Technology, MA, USA), anti-phospho-AKT (Ser473) ([…], Cell Signaling Technology, MA, USA), anti-IRS-1 ([…], Cell Signaling Technology, MA, USA), and human anti-β-actin (4970, Cell Signaling Technology, MA, USA). Western blot analysis was performed with cell lines or primary pre-B ALL cells from SP following GZD824 treatment, and signal intensities were normalized to β-actin signals.

phospho-STAT3 = assay: Western blot of NALM6 cells; assay type: cell-based, human; details: NALM6, 1μM or 3μM, 24 hours
Description: as §1

C-Myc = assay: Western blot of NALM6 cells; assay type: cell-based, human; details: NALM6, 1μM or 3μM, 24 hours
Description: as §1

phospho-SRC = assay: Western blot of NALM6 cells; assay type: cell-based, human; details: NALM6, 1μM or 3μM, 24 hours
Description: as §1

SUPB15 cells = assay: Annexin V apoptosis flow cytometry; assay type: cell-based, human; details: 24 h
Description: Human pre-B ALL cell lines NALM6 and SUPB15 were purchased from American Type Culture Collection (ATCC, Maryland, USA). All pre-B ALL cell lines were maintained in cell culture media and conditions as recommended by the ATCC. Cells were treated with GZD824 for 24 hours. GZD824 (3μM, 1μM, or 0.5μM) was used in the experiments unless otherwise noted. NALM6 and SUPB15 cells were maintained in RPMI-1640 medium (Gibco, New York, NY, USA) with 10% fetal bovine serum (Biochrom, Melbourne, Australia). For identification of apoptotic cells among NALM6, SUPB15, and primary pre-B ALL cells, the GZD824-treated cells were stained with Annexin V Apoptosis Detection Kit (88-8007, BD ebioscience, CA, USA) according to the manufacturer's instructions (Affymetrix ebioscience, CA, USA) and then subjected to flow cytometric analysis by the Accuri™ C6 (BD Biosciences, CA, USA). For the in vitro drug sensitivity test in Figure 6A, the human CD45+ cells in spleen and bone marrow from sick mice account for over 95% of the total. We enriched human CD45+ cells in PB by MACS according to the manufacturer's instruction. After the enrichment, the purity of human CD45+ cell in PB reached 95%. […] All data were analyzed with FlowJo software (Tree Star, Inc., Ashland, USA).

[1] = tested on: normal human primary B cells; assay: Annexin V apoptosis of normal B cells; assay type: cell-based; details: 1μM, vs DMSO
ABL = biological target: T1, ABL (Homo sapiens, UniProt P00519); assay: Active-site-dependent competition kinase binding assay (KINOMEscan)
T1 construct: purchased Ambit Bioscience (CA, USA), KINOMEscan service
T1 sequence (P00519 whole entry): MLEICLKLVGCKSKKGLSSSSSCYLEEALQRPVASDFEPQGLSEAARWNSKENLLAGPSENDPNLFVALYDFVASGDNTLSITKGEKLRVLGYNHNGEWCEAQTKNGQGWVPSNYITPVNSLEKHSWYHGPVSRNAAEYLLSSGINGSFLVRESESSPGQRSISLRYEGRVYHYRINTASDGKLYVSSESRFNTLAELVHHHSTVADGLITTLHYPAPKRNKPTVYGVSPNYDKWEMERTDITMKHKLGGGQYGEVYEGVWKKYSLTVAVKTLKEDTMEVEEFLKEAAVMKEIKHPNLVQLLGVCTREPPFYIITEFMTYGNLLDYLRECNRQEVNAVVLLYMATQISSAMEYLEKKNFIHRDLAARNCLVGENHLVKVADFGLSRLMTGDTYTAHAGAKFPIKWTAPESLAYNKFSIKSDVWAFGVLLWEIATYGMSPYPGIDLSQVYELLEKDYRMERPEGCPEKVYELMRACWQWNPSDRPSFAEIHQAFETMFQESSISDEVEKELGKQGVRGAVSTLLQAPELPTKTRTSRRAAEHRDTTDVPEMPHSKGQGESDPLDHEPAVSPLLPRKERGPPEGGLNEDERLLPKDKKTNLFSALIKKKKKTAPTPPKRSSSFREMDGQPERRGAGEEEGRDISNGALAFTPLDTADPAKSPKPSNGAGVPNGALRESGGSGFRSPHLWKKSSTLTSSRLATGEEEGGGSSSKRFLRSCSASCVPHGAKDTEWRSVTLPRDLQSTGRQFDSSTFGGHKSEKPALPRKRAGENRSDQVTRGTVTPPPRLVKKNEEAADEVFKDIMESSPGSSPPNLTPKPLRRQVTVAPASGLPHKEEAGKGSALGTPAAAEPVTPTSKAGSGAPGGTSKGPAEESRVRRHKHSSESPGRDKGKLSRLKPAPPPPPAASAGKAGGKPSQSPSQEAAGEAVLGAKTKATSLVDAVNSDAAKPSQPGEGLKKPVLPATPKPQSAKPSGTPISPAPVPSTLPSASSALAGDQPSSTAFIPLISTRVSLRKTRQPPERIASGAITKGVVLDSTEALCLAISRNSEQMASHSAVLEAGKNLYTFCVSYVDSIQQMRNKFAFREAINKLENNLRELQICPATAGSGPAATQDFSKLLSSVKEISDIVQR
Description: (§2) Kinase assay was performed as previously described. The binding activities of GZD824 were analyzed by KINOME scan system conducted by Ambit Bioscience (CA, USA). Briefly, kinases were tagged with DNA. The ligands were biotinylated and immobilized to streptavidin coated beads. The binding reactions were assembled by incubating DNA-tagged kinases, immobilized ligands, and test compounds in binding reactions (20% SeaBlock, 0.17×PBS, 0.05% tween-20, 6 mM DTT) for 1.0 h at room temperature. The affinity beads were washed with washing buffer (1×PBS, 0.05% Tween-20) first and then elution buffer (1×PBS, 0.05% Tween 20, 0.5μM nonbiotinylated affinity ligands). The kinase concentration in the eluate was determined by quantitative PCR of the DNA tagged to the kinase. The ability of the test compound to bind to the kinase was evaluated with percent control (%) as (test compound signal −positive control signal)/negative control signal−positive control signal) ×100%. Negative control is DMSO control (100% ctrl) and positive control is control compound (0% ctrl).

SRC = biological target: T2, SRC (Homo sapiens, UniProt P12931); assay: as above
T2 construct: purchased Ambit Bioscience (CA, USA), KINOMEscan service
T2 sequence (P12931 whole entry): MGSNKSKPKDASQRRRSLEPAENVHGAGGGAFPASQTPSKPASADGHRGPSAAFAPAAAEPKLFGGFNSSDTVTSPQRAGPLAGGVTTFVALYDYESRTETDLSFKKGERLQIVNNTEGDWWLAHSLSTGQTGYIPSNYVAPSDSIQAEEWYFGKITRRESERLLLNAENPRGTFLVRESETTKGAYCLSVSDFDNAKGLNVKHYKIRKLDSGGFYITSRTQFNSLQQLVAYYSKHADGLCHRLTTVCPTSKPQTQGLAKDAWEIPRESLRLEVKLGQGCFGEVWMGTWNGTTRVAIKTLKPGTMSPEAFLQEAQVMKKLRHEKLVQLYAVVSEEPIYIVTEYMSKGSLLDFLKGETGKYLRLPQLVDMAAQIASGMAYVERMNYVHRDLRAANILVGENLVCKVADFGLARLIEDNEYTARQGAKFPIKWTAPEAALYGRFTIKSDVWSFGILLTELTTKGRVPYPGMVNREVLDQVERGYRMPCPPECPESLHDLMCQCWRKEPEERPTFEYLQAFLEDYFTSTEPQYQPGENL
Description: as §2

MAPK = assay: as above
Description: as §2

JAK = assay: as above
Description: as §2

Compound: Cc1ccc(C(=O)Nc2ccc(CN3CCN(C)CC3)c(C(F)(F)F)c2)cc1C#Cc1cnc2[nH]ncc2c1 [GZD824]
- Rb phosphorylation (phospho-Rb): suppressed
- phosphorylated STAT3 (phospho-STAT3): reduced
- c-Myc oncogene expression (C-Myc): downregulated
- phosphorylated SRC (phospho-SRC): reduced
- apoptotic rate (SUPB15 cells; SUPB15, 1μM): moderate
- cells undergoing apoptosis (AnnexinV+) (SUPB15 cells; SUPB15, 3μM): 48.3%
- apoptosis in normal human primary B cells [1]: did not induce apoptosis
- remaining binding at 0.01 µM (ABL; read-out: %Ctrl@10nM): 2.8%
- remaining binding at 0.1 µM (ABL; read-out: %Ctrl@100nM): 0.15%
- remaining binding at 0.01 µM (SRC; SRC, 10 nM, mean of two independent experiments, read-out: %Ctrl@10nM): 26%
- remaining binding at 0.1 µM (SRC; SRC, 100 nM, mean of two independent experiments, read-out: %Ctrl@100nM): 0.75%
- binding to the SRC kinase (in words) (SRC; kinase assay): high affinity
- %Ctrl@10nM (MAPK; MAPK, 10 nM, mean of two independent experiments): 81%
- %Ctrl@100nM (MAPK; MAPK, 100 nM, mean of two independent experiments): 81%
- binding to MAPK (in words) (MAPK; kinase assay): does not bind
- %Ctrl@10nM (JAK; JAK, 10 nM, mean of two independent experiments): 100%
- %Ctrl@100nM (JAK; JAK, 100 nM, mean of two independent experiments): 100%
- binding to JAK (in words) (JAK; kinase assay): does not bind
